Columns and labels:
Assay type in all cases: in vivo
[1] = tested on: Galium (catchweed bedstraw, Galium aparine); assay: Test A postemergence; settings: Galium, post-emergence, 240 h, Postemergence, read-out: Galium plant response rating (0 to 100 scale)
Method in brief: (§1)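 Preemergence directed soil spray on seeded pots, or postemergence application to plants 2–10 cm, one- to two-leaf. Solvent mixture non-phytotoxic, with surfactant. Scored ~10 d later, visually, 0–100 vs untreated.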

[2] = tested on: ragweed (common ragweed, Ambrosia elatior); assay: Test A postemergence; settings: Ambrosia artemisiifolia, post-emergence, 240 h, Postemergence, read-out: Ragweed plant response rating (0 to 100 scale)
Method in brief: as §1

[3] = tested on: ryegrass, Italian (Italian ryegrass, Lolium multiflorum); assay: Test A postemergence; settings: Lolium multiflorum, post-emergence, 240 h, Postemergence, read-out: Ryegrass, Italian plant response rating (0 to 100 scale)
Method in brief: as §1

[4] = tested on: barnyardgrass (Echinochloa crus-galli); assay: Test A postemergence; settings: Echinochloa crus-galli, post-emergence, 240 h, Postemergence
Method in brief: as §1

[5] = tested on: blackgrass (Alopecurus myosuroides); assay: Test A postemergence; settings: Alopecurus myosuroides, post-emergence, 240 h, Postemergence, read-out: Blackgrass plant response rating (0 to 100 scale)
Method in brief: as §1

[6] = tested on: giant foxtail (Setaria faberii); assay: Test A postemergence; settings: Setaria faberi, post-emergence, 240 h, Postemergence, read-out: Foxtail, Giant plant response rating (0 to 100 scale)
Method in brief: as §1

[7] = tested on: pigweed (Amaranthus retroflexus); assay: Test A postemergence; settings: Amaranthus retroflexus, post-emergence, 240 h, Postemergence, read-out: Pigweed plant response rating (0 to 100 scale)
Method in brief: as §1

corn (Zea mays) = assay: Test A postemergence; settings: Zea mays, post-emergence, 240 h, Postemergence, read-out: Corn plant response rating (0 to 100 scale)
Method in brief: as §1

[8] = tested on: wheat (Triticum aestivum); assay: Test A postemergence; settings: Triticum aestivum, post-emergence, 240 h, Postemergence, read-out: Wheat plant response rating (0 to 100 scale)
Method in brief: as §1

Kochia (Kochia scoparia) [9] = assay: Test A postemergence; settings: Bassia scoparia, post-emergence, 240 h, Postemergence, read-out: Kochia plant response rating (0 to 100 scale)
Method in brief: as §1

[10] = tested on: barnyardgrass (Echinochloa crus-galli); assay: Test B flooded paddy test; settings: Echinochloa crus-galli, 360 h, Flood, 250 g ai/ha; visually evaluated after 13 to 15 d; read-out: Plant response rating, Barnyardgrass (0 to 100 scale where 0 is no effect and 100 is complete control)
Method in brief: (§2)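 Evaluation by eye, against controls, occurred 13–15 d post-treatment in a greenhouse, using a 0 (no effect) to 100 (complete control) scale. Application was into the paddy water, 3 cm deep over the soil, on 2-leaf plants.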

rice (Oryra sativa) = assay: Test B flooded paddy test; settings: Oryza sativa, 360 h, Flood, 250 g ai/ha; visually evaluated after 13 to 15 d; read-out: Plant response rating, Rice (0 to 100 scale where 0 is no effect and 100 is complete control)
Method in brief: as §2

[11] = tested on: ducksalad (Heteranthera limosa); assay: Test B flooded paddy test; settings: Heteranthera limosa, 360 h, Flood, 250 g ai/ha; visually evaluated after 13 to 15 d; read-out: Plant response rating, Ducksalad (0 to 100 scale where 0 is no effect and 100 is complete control)
Method in brief: as §2

[12] = tested on: sedge, umbrella (small-flower umbrella sedge, Cyperus difformis); assay: Test B flooded paddy test; settings: Cyperus difformis, 360 h, Flood, 250 g ai/ha; visually evaluated after 13 to 15 d; read-out: Plant response rating, Sedge, Umbrella (0 to 100 scale where 0 is no effect and 100 is complete control)
Method in brief: as §2

[13] = tested on: ragweed (common ragweed, Ambrosia elatior); assay: Test A preemergence; settings: Ambrosia artemisiifolia, pre-emergence, 240 h, Preemergence
Method in brief: as §1

[14] = tested on: ryegrass, Italian (Italian ryegrass, Lolium multiflorum); assay: Test A preemergence; settings: Lolium multiflorum, pre-emergence, 240 h, Preemergence
Method in brief: as §1

[15] = tested on: barnyardgrass (Echinochloa crus-galli); assay: Test A preemergence; settings: Echinochloa crus-galli, pre-emergence, 240 h, Preemergence
Method in brief: as §1

[16] = tested on: giant foxtail (Setaria faberii); assay: Test A preemergence; settings: Setaria faberi, pre-emergence, 240 h, Preemergence
Method in brief: as §1

[17] = tested on: pigweed (Amaranthus retroflexus); assay: Test A preemergence; settings: Amaranthus retroflexus, pre-emergence, 240 h, Preemergence
Kochia (Kochia scoparia) [18] = assay: Test A preemergence; settings: Bassia scoparia, pre-emergence, 240 h, Preemergence
Method in brief: as §1

[19] = 125 g ai/ha, visual rating about 10 d after treatment
[20] = 31 g ai/ha, 0 is no effect, 100 is complete control

Question: `Cc1cccc([C@H]2CN(C)C(=O)[C@@H]2C(=O)Nc2ccc(F)nc2F)c1` [Compound 1349] was tested. Which pest or weed control at 125 g/ha [1, 19] did it give?
Answer: 60%

Question: And the pest or weed control at 31 g/ha [1, 20]?
Answer: 30%

Question: What about the pest or weed control at 125 g/ha [2, 19] of the same compound?
Answer: 0%

Question: And the pest or weed control at 31 g/ha [2, 20]?
Answer: 0%

Question: What about the pest or weed control at 125 g/ha [3, 19] of the same compound?
Answer: 20%

Question: And the pest or weed control at 31 g/ha [3, 20]?
Answer: 0%

Question: What about the pest or weed control at 125 g/ha ([4]; 125 g ai/ha, visual rating about 10 d after treatment, read-out: Barnyardgrass plant response rating (0 to 100 scale, 0 no effect, 100 complete control)) of the same compound?
Answer: 90%

Question: What about the pest or weed control at 31 g/ha ([4]; 31 g ai/ha, 0 is no effect, 100 is complete control, read-out: Barnyardgrass plant response rating (0 to 100 scale)) of the same compound?
Answer: 70%

Question: And the pest or weed control at 125 g/ha [5, 19]?
Answer: 20%

Question: And the pest or weed control at 31 g/ha [5, 20]?
Answer: 0%

Question: And the pest or weed control at 125 g/ha [6, 19]?
Answer: 80%

Question: And the pest or weed control at 31 g/ha [6, 20]?
Answer: 60%

Question: And the pest or weed control at 125 g/ha [7, 19]?
Answer: 0%

Question: And the pest or weed control at 31 g/ha [7, 20]?
Answer: 0%

Question: And the plant injury at 125 g/ha (corn (Zea mays); [19])?
Answer: 0%

Question: What about the plant injury at 31 g/ha (corn (Zea mays); [20]) of the same compound?
Answer: 0%

Question: And the plant injury at 125 g/ha [8, 19]?
Answer: 0%

Question: What about the plant injury at 31 g/ha [8, 20] of the same compound?
Answer: 0%

Question: What about the pest or weed control at 125 g/ha (Kochia (Kochia scoparia) [9]; [19]) of the same compound?
Answer: 30%

Question: What about the pest or weed control at 31 g/ha (Kochia (Kochia scoparia) [9]; [20]) of the same compound?
Answer: 0%

Question: And the pest or weed control at 250 g/ha [10]?
Answer: 90%

Question: What about the pest or weed control at 250 g/ha (rice (Oryra sativa)) of the same compound?
Answer: 0%

Question: What about the pest or weed control at 250 g/ha [11] of the same compound?
Answer: 95%

Question: And the pest or weed control at 250 g/ha [12]?
Answer: 0%

Question: What about the pest or weed control at 31 g/ha ([13]; 31 g ai/ha, 0 to 100 scale where 0 is no effect and 100 is complete control, read-out: Ragweed plant response rating) of the same compound?
Answer: 0%

Question: And the pest or weed control at 125 g/ha ([13]; 125 g ai/ha, 0 to 100 scale (0 no effect, 100 complete control), read-out: Plant response rating, Ragweed)?
Answer: 0%

Question: And the pest or weed control at 31 g/ha ([14]; 31 g ai/ha, 0 to 100 scale where 0 is no effect and 100 is complete control, read-out: Ryegrass, Italian plant response rating)?
Answer: 0%

Question: What about the pest or weed control at 125 g/ha ([14]; 125 g ai/ha, 0 to 100 scale (0 no effect, 100 complete control), read-out: Plant response rating, Ryegrass, Italian) of the same compound?
Answer: 0%

Question: What about the pest or weed control at 31 g/ha ([15]; 31 g ai/ha, 0 to 100 scale where 0 is no effect and 100 is complete control, read-out: Barnyardgrass plant response rating) of the same compound?
Answer: 20%

Question: And the pest or weed control at 125 g/ha ([15]; 125 g ai/ha, 0 to 100 scale (0 no effect, 100 complete control), read-out: Plant response rating, Barnyardgrass)?
Answer: 100%

Question: What about the pest or weed control at 31 g/ha ([16]; 31 g ai/ha, 0 to 100 scale where 0 is no effect and 100 is complete control, read-out: Foxtail, Giant plant response rating) of the same compound?
Answer: 100%

Question: What about the pest or weed control at 125 g/ha ([16]; 125 g ai/ha, 0 to 100 scale (0 no effect, 100 complete control), read-out: Plant response rating, Foxtail, Giant) of the same compound?
Answer: 100%

Question: And the pest or weed control at 31 g/ha ([17]; 31 g ai/ha, 0 to 100 scale where 0 is no effect and 100 is complete control, read-out: Pigweed plant response rating)?
Answer: 0%

Question: And the pest or weed control at 125 g/ha ([17]; 125 g ai/ha, 0 to 100 scale (0 no effect, 100 complete control), read-out: Plant response rating, Pigweed)?
Answer: 0%

Question: What about the pest or weed control at 31 g/ha (Kochia (Kochia scoparia) [18]; 31 g ai/ha, 0 to 100 scale where 0 is no effect and 100 is complete control, read-out: Kochia plant response rating) of the same compound?
Answer: 0%

Question: And the pest or weed control at 125 g/ha (Kochia (Kochia scoparia) [18]; 125 g ai/ha, 0 to 100 scale (0 no effect, 100 complete control), read-out: Plant response rating, Kochia)?
Answer: 20%
